According to US12151000B2, “Tolerogenic artificial antigen-presenting cells” (THE JOHNS HOPKINS UNIVERSITY, priority 2019, dated 2024):

Assays:
IL-2Rα = target: T1, IL-2Rα (Homo sapiens, UniProt P01589); assay: Bio-layer interferometry binding to immobilized IL-2Rα
T1 construct: the extracellular domains of the hIL-2Rα (residues 1-214) and hIL-2Rβ (residues 1-214) receptor subunits; hexahistidine (C); made in house; host or cells: HEK 293F
T1 sequence (P01589 22-235): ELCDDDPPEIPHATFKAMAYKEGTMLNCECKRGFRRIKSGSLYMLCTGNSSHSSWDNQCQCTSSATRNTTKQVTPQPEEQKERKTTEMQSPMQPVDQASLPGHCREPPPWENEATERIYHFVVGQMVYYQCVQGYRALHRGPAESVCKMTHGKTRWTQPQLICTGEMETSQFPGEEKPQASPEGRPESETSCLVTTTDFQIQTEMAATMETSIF
Protocol: (§1) Bio-layer interferometry binding studies. […] Less than 5 signal units (nm) of receptor was immobilized to minimize mass transfer effects. […] An irrelevant protein was included in a reference well to subtract non-specific binding. Surface regeneration for all interactions was conducted using a 15 second exposure to 0.1 M glycine pH 3.0. Experiments were carried out in PBSA (phosphate-buffered saline, pH 7.3 plus 0.1% bovine serum albumin (BSA, Thermo Fisher Scientific)) at 25° C. Data was visualized and processed using the Octet® Data Analysis software version 7.1 (Molecular Devices). Equilibrium titration curve fitting and KD value determination was implemented using GraphPad Prism, assuming all binding interactions to be first order. Experiments were reproduced two times with similar results.
(§2) The binding affinities were also evaluated using bio-layer interferometry on an OCTET® instrument with biotinylated hIL-2 immobilized on a streptavidin-coated tip (FIG. 6B). […]
(§3) Additionally, binding interactions between F5111 IC LN25 and LN35 with the human IL-2Rα (hIL-2Rα) and hIL-2Rβ subunits were measured using bio-layer interferometry on an Octet® instrument by immobilizing biotinylated hIL-2Rα and IL-2Rβ on streptavidin-coated tips.

immobilized hIL-2 = target: T2, immobilized hIL-2 (Homo sapiens, UniProt P60568); assay: Bio-layer interferometry binding to immobilized hIL-2; conditions: biotinylated hIL-2 immobilized
T2 construct: The full hIL-2 cytokine (residues 1-133) and the extracellular domains; hexahistidine (C); made in house; host or cells: HEK 293F
Protocol: as §1
(§4) The binding affinities were also evaluated using bio-layer interferometry on an OCTET® instrument with biotinylated hIL-2 immobilized on a streptavidin-coated tip (FIG. 6B). […] Bio-layer interferometry based binding studies were also conducted to assess the interaction between F5111 IC LN15 and the IL-2Rα and IL-2Rβ receptor chains, to ensure that the single-chain antibody/cytokine fusion was biased toward engagement of IL-2Rα (which is highly expressed on TReg cells but not effector cells) compared with IL-2Rβ.

IL-2Rβ = target: T3, IL-2Rβ (Homo sapiens, UniProt P14784); assay: Bio-layer interferometry binding to immobilized IL-2Rβ
T3 construct: the extracellular domains of the hIL-2Rα (residues 1-214) and hIL-2Rβ (residues 1-214) receptor subunits; hexahistidine (C); made in house; host or cells: HEK 293F
T3 sequence (P14784 27-240): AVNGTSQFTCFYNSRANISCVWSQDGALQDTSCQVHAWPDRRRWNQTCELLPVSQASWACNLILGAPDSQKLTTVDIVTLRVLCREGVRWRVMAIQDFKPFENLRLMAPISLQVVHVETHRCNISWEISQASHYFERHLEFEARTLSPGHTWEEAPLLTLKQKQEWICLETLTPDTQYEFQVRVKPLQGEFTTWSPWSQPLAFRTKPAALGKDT
Protocol: as §1, §4, §3

human IL-2 (hIL-2) = target: T4, human IL-2 (hIL-2) (Homo sapiens, UniProt P60568); assay: Yeast surface binding study, yeast-displayed hIL-2, flow cytometry; conditions: yeast surface-displayed hIL-2
T4 construct: hIL-2 (residues 1-133) or mIL-2 (residues 1-149) were cloned into the pCT302 vector; made in house; host or cells: yeast (surface display)
Protocol: Yeast surface binding studies. For antibody binding studies on yeast, hIL-2 (residues 1-133) or mIL-2 (residues 1-149) were cloned into the pCT302 vector and presented on the surface of yeast, as described previously (Boder et al., Nat. Biotechnol., 15(6): 553-557 (1997)). […] Cells were then washed and stained with a 1:200 dilution of Alexa647-conjugated streptavidin (Thermo) in PBSA for 15 minutes at 4° C. After a final wash, cells were analyzed for antibody binding using a CytoFLEX flow cytometer (Beckman Coulter). Background-subtracted and normalized binding curves were fitted to a first-order binding model and equilibrium dissociation constant (KD) values were determined using GraphPad Prism. Studies were performed three times with similar results.
A rapid small-scale HEK 293F cell transfection assay was developed to optimize immunocytokine expression. Cells were transfected in 6-well plates with predefined ratios of heavy chain (HC) and IL-2-fused light chain (LC) plasmid DNA. After a 3-day incubation, secreted protein was captured from the supernatant with protein G resin, eluted with 0.1 M glycine pH 2.0, and analyzed via SDS-PAGE. […]
as §2

IL-2Rα^− YT-1 cells = assay: YT-1 cell STAT5 phosphorylation, IL-2Rα− cells; format: cell-based, human; conditions: flow cytometry, 20 minutes stimulation
Protocol: (§5) YT-1 cell STAT5 phosphorylation studies. Approximately 2×10^5 IL-2Rα^− YT-1 or IL-2Rα^+ YT-1 cells were plated in each well of a 96-well plate and re-suspended in RPMI complete medium containing serial dilutions of the indicated treatments. Cytokine/antibody complexes were formed by incubating a 1:1 molar ratio of F5111 antibody to hIL-2 for 1 hour at 37° C. Cells were stimulated for 20 minutes at 37° C. and immediately fixed by addition of formaldehyde to 1.5% and 10 minute incubation at room temperature. Permeabilization of cells was achieved by resuspension in ice-cold 100% methanol for 30 minutes at 4° C. Fixed and permeabilized cells were washed twice with FACS buffer (phosphate-buffered saline [PBS] pH 7.2 containing 0.1% BSA [Thermo Fisher Scientific]) and incubated with Alexa Fluor® 647-conjugated anti-STAT5 pY694 (BD Biosciences) diluted in FACS buffer for 2 hours at room temperature. Cells were then washed twice in FACS buffer and mean fluorescence intensity (MFI) was determined on a CytoFLEX flow cytometer (Beckman-Coulter). Dose-response curves were fitted to a logistic model and half-maximal effective concentrations (EC50s) were calculated using GraphPad Prism data analysis software after subtraction of the mean fluorescence intensity (MFI) of unstimulated cells and normalization to the maximum signal intensity.
(§6) A cell signaling assay was performed on YT-1 human NK cells with or without IL-2Rα.

IL-2Rα^+ YT-1 cells = assay: YT-1 cell STAT5 phosphorylation, IL-2Rα+ cells; format: cell-based, human; conditions: for STAT5 activation on IL-2Rα^+ YT-1 cells: flow cytometry, 20 minutes stimulation; for selective activation of IL-2Rα^+ TReg-like cells over IL-2Rα^− TEff-like cells (bias): YT-1 cells with or without IL-2Rα
Protocol: as §5, §6

[1] = tested on: human PBMCs (TReg cells, CD8^+ and CD4^+ effector T cells); assay: Human PBMC STAT5 phosphorylation in T cell subsets; format: cell-based; conditions: human PBMCs from healthy donor whole blood
Protocol: Human PBMC STAT5 phosphorylation studies. Human PBMCs were isolated from whole blood of healthy donors via Ficoll gradient following manufacturer protocols and then incubated with ACK lysis buffer for removal of red blood cells. Approximately 1×10^6 human PBMCs were plated in each well of a 96-well plate and re-suspended in RPMI complete medium containing serial dilutions of the indicated treatments. Cytokine/antibody complexes were formed by incubating a 1:1 molar ratio of F5111 antibody to hIL-2 for 1 hour at 37° C. Cells were stimulated for 20 minutes at 37° C. and immediately fixed by addition of 1X Fix/Perm Buffer (BD Biosciences) and 50 minute incubation at 4° C. Permeabilization of cells was achieved by resuspension in Perm Buffer III (BD Biosciences) overnight at −20° C. […] Cells were then washed twice in FACS buffer and MFI was determined on a CytoFLEX flow cytometer (Beckman-Coulter). Dose-response curves were fitted to a logistic model and half-maximal effective concentrations (EC50s) were calculated using GraphPad Prism data analysis software after subtraction of the mean fluorescence intensity (MFI) of unstimulated cells and normalization to the maximum signal intensity. […]

[2] = tested on: CD4+ T cells from C57BL/6 mice; assay: pSTAT5 expression in C57BL/6 CD4+ T cells; format: cell-based, mouse
Protocol: FIG. 22 is a graph showing the results of B6 CD4+ cells stimulation with titrated encapsulated particle doses or equivalent free doses of F5111 for different lengths of time, and the analysis of pSTAT5 expression using flow cytometry. A dose titration for free and MP-loaded F5111 IC LN35 was observed, with maximum pSTAT5 expression achieved after 1 hour of stimulation.
To evaluate the functionality of F5111 IC-loaded particles, mouse CD4+ T cells were stimulated with F5111 IC-loaded microparticles to identify an optimal stimulation time for maximum pSTAT5 expression, and pSTAT5 expression was compared to that of cells stimulated with free F5111 IC. CD4+ T cells were isolated from C57BL/6 mice and incubated with various doses of F5111 IC-loaded microparticles or equivalent doses of free F5111 IC for 20, 40, 60, or 120 minutes.

[3] = tested on: CD4^+ T cells from B6 mice; assay: In vitro FOXP3+ cell expansion in B6 CD4+ T cells; format: cell-based, mouse; conditions: 3 days
Protocol: F5111 IC LN35-loaded microparticles or free F5111 IC LN35 (at a dose equivalent to the particle loading dose) were incubated with CD4+ cells from B6 mice for 3 days, and cells were analyzed for FOXP3 expression via flow cytometry.
To determine whether F5111 IC-encapsulated MPs could induce in vitro TReg cell expansion, CD4^+ T cells were isolated from the spleens of B6 mice and incubated with unconjugated F5111 IC or F5111 IC-loaded PLGA MPs for 3 days. Cells were then stained for CD4, CD25, and FOXP3, and analyzed using flow cytometry.

T2 sequence (P60568 21-153): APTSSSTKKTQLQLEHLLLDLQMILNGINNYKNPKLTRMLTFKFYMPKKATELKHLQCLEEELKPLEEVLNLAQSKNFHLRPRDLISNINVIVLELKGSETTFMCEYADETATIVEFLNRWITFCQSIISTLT
T4 sequence (P60568 21-153): as above

F5111 IC LN15: immunocytokine: hIL-2 fused to N-terminus of F5111 antibody light chain by 15-amino acid (Gly4Ser)3 linker
binding to IL-2Rα compared to free IL-2 (IL-2Rα): equal potency to the free IL-2 cytokine
binding affinity for hIL-2 relative to F5111 Ab (immobilized hIL-2): significant reduction in binding affinity
binding to IL-2Rβ compared to free IL-2 (IL-2Rβ): significantly impaired binding
binding affinity for hIL-2 relative to F5111 Ab (human IL-2 (hIL-2)): significant reduction in binding affinity
STAT5 activation on IL-2Rα^− YT-1 cells (IL-2Rα^− YT-1 cells): dramatically reduced
STAT5 activation on IL-2Rα^+ YT-1 cells (IL-2Rα^+ YT-1 cells): only mildly impaired

F5111 IC LN25: immunocytokine: hIL-2 fused to N-terminus of F5111 antibody light chain by 25-amino acid (Gly4Ser)5 linker
binding to IL-2Rβ compared to free IL-2 (IL-2Rβ): significant reduction in the binding affinity
STAT5 activation on IL-2Rα^− YT-1 cells (IL-2Rα^− YT-1 cells): immeasurable
selective activation of IL-2Rα^+ TReg-like cells over IL-2Rα^− TEff-like cells (bias) (IL-2Rα^+ YT-1 cells): greater bias than F5111 IC LN15 and the hIL-2/F5111 complex
STAT5 activation on IL-2Rα^+ YT-1 cells (IL-2Rα^+ YT-1 cells): sub-nanomolar concentrations

F5111 IC LN35: immunocytokine: hIL-2 fused to N-terminus of F5111 antibody light chain by 35-amino acid (Gly4Ser)7 linker
STAT5 activation of TReg cells compared to CD8^+ and CD4^+ effector T cells [1]: significantly more potent activation
binding to IL-2Rβ compared to free IL-2 (IL-2Rβ): significant reduction in the binding affinity
stimulation time of maximum pSTAT5 activation [2]: 60 minutes
activation (pSTAT5) of CD4^+ T cells ([2]; various doses, 20, 40, 60, or 120 minutes): dose-dependent manner
expansion of FOXP3+ cells compared to untreated cells [3]: expanded FOXP3+ cells
STAT5 activation on IL-2Rα^− YT-1 cells (IL-2Rα^− YT-1 cells): immeasurable
selective activation of IL-2Rα^+ TReg-like cells over IL-2Rα^− TEff-like cells (bias) (IL-2Rα^+ YT-1 cells): greater bias than F5111 IC LN15 and the hIL-2/F5111 complex
STAT5 activation on IL-2Rα^+ YT-1 cells (IL-2Rα^+ YT-1 cells): sub-nanomolar concentrations
